Measured values from patent publication US20260097045A1, “ANTIMICROBIAL COMBINATIONS” (Helperby Therapeutics Limited, priority 2022, published 2026).
Residues, ends and D or L forms follow the SMILES beside them.

Legend:
Assay type in all cases: cell-based
[1] = test system: Methicillin-resistant Staphylococcus aureus (MRSA); assay: chequerboard assay (percentage of positive control, MIC, FIC) against MRSA; details: for MIC: Staphylococcus aureus, agent alone, MRSA isolate, read-out: MIC Monotherapy (X)
From the text: (§1) FICI or fractional inhibitory concentration index is the sum of the FICs of each antimicrobial when used in combination. The FIC or fractional inhibitory concentration of an antimicrobial in a combination, is the MIC of the antimicrobial in the combination divided by the MIC of the same antimicrobial when used alone. Minimum inhibitory concentrations are defined in the art as the lowest concentration of an antimicrobial that will inhibit the visible growth of a microorganism after overnight incubation.
(§2) In the method for a 3-mer combination, one antibiotic was “fixed” as part of a backbone whilst the two other antibiotics were varied over a doubling concentration scale beginning at the MIC (×1) for the effective dose in monotherapy against the organism being tested. The ΣFIC was then calculated as shown below. In the method for a 4-mer combination, two antibiotics were “fixed” as part of a backbone whilst the two other antibiotics were varied over a doubling concentration scale beginning at the MIC (×1) for the effective dose in monotherapy against the organism being tested.
(§3) The ΣFIC was divided by “0.5/n” where n=number of antimicrobials in the combination to provide FIC. The inventors opted for this expression because it more closely aligns with the 2-mer synergy levels. The same FIC scale as used for 2-mers was applied: synergy is observed when FIC is <0.5. An “Additive” effect is observed when FIC is 0.5 to <1. Indifference is observed when FIC is 1 to <2. Antagonism is observed when FIC is 2 to 4.
(§4) The antimicrobial agents were sourced from commercially available sources. They were prepared by being weighed and dissolved in water, PBS, DMSO or acidified water to a final concentration from 1-10 mg/mL. Antimicrobial solutions were diluted to 10× highest concentration used in the experiment and subsequently diluted 2× over a series not exceeding 11 serial dilutions. These left the operator with a maximum of 12 different, descending concentrations of the chosen antimicrobials.
(§5) The bacteria were obtained from Ninewells Hospital and Medical School in Dundee, Scotland. They were obtained as patient strains and characterised by Vitek 2 screening. To prepare for the Examples below, the bacteria were grown overnight in Mueller Hinton Cation adjusted broth or until confluent in media with or without supplements. The bacteria were measured for OD600 and readings of <0.25 were returned to the incubator.
(§6) All data herein was produced using the same chequerboard assay.
(§7) 20 μL of antibiotic A (backbone), at a single dilution, was pipetted into all wells of a 96-well plate to be used.
(§8) 20 μL of the lowest concentration of antibiotic B (first variable) was pipetted into column 1 of the 96-well plate. The second concentration (2-fold more concentrate) was pipetted into column 2. This process was repeated until all concentrations of antibiotic B to be used were complete.
(§9) 20 μL of the lowest concentration of antibiotic C (second variable) were pipetted into row A of the 96-well plate. The second concentration (2-fold more concentrate) was pipetted into row B. This process was repeated until all concentrations of antibiotic C to be used were complete.
(§10) 120 μL of sterile media (BHI/MHB2) was added.
(§11) 20 ul of prepared bacterial culture was added.
(§12) Plates were sealed with lids and left to incubate for 16 hours, overnight.
(§13) Plates were read at OD600 in a 96-well plate reader. These are the values reported in the chequerboards below.
(§14) As a tri-mer combination, two antibiotic concentrations were varied while one remained constant, the latter is the “backbone”. For the 4-mer combination, two antibiotic concentrations were varied while two remained constant, the latter is the “backbone”. This method is explained above along with the calculation of the FICI and the indicative value for synergy, indifference and antagonism.
The method was identical to Comparative Example 1. The isolate was Methicillin-resistant Staphylococcus aureus (MRSA).

P. aeruginosa = assay: chequerboard assay (percentage of positive control, MIC, FIC) against P. aeruginosa; details: for MIC: Pseudomonas aeruginosa, read-out: MIC Monotherapy (X)
From the text: as §1, §2, §3, §4, §5, §6, §7, §8, §9, §10, §11, §12, §13, §14
The method was identical to Comparative Example 1, except the isolate was P. aeruginosa.

A. baumannii = assay: chequerboard assay (percentage of positive control, MIC, FIC) against A. baumannii; details: for MIC: Acinetobacter baumannii, read-out: MIC Monotherapy (X); for MIC / concentration up to which the isolate was resistant to the agent: agent alone, A. baumannii isolate
From the text: as §1, §2, §3, §4, §5, §6, §7, §8, §9, §10, §11, §12, §13, §14
The method was identical to Comparative Example 1. The isolate was A. baumannii.

ESBL E. coli = assay: chequerboard assay (OD600, MIC, FIC) against ESBL E. coli; details: for MIC: Escherichia coli, agent alone, ESBL E. coli isolate, read-out: MIC Monotherapy (X)
From the text: as §1, §2, §3, §4, §5, §6, §7, §8, §9, §10, §11, §12, §13, §14

K. pneumoniae CPE = assay: chequerboard assay (OD600, FIC) against K. pneumoniae CPE; details: agent alone
[2] = agent within ceftazidime + levofloxacin + meropenem (Example 19)
[3] = P. aeruginosa isolate, agent alone
[4] = agent alone, P. aeruginosa isolate
[5] = agent within AZT + ceftazidime + meropenem (Example 16)
[6] = agent within zidovudine + meropenem + colistin + ceftazidime (Example 13)
[7] = agent within zidovudine + meropenem + colistin + fosfomycin (Example 14)
[8] = agent within ceftazidime + levofloxacin + fosfomycin (Example 18)
[9] = agent within AZT + ceftazidime + colistin (Example 17)
[10] = agent within AZT + fosfomycin + colistin (Example 15)
[11] = agent within AZT + colistin + ceftazidime (Example 17)
[12] = agent within ceftazidime + AZT + doxycycline (Example 3)
[13] = agent within AZT + meropenem + colistin + fosfomycin (Example 14)

Row | Compound | MIC [1] [µg/mL] | MIC combination therapy (Y) [1, 2] [µg/mL] | MIC (P. aeruginosa; [4]) [µg/mL] | MIC combination therapy (Y) (P. aeruginosa; [5]) [µg/mL] | MIC combination therapy (Y) (P. aeruginosa; [6]) [µg/mL] | MIC combination therapy (Y) (P. aeruginosa; [7]) [µg/mL] | MIC combination therapy (Y) [1, 8] [µg/mL] | MIC combination therapy (Y) (P. aeruginosa; [9]) [µg/mL] | MIC combination therapy (Y) (P. aeruginosa; [10]) [µg/mL] | Ratio Y:X (P. aeruginosa; [10]) | MIC (A. baumannii) [µg/mL] | MIC combination therapy (Y) (A. baumannii; [11]) [µg/mL] | MIC combination therapy (Y) (A. baumannii; [10]) [µg/mL] | Ratio Y:X (A. baumannii; [10]) | MIC combination therapy (Y) (ESBL E. coli; [12]) [µg/mL] | further results
1 | C[C@@H](O)[C@H]1C(=O)N2C(C(=O)O)=C(S[C@@H]3CN[C@H](C(=O)N(C)C)C3)[C@H](C)[C@H]12 [Meropenem] | 32 | 4 | 32 | 4 | 2 | 4 | – | – | – | – | – | – | – | – | – | concentration up to which the isolate was resistant to the agent (P. aeruginosa; [3]): 64 mg/L
2 | C[C@H]1COc2c(N3CCN(C)CC3)c(F)cc3c(=O)c(C(=O)O)cn1c23 [Levo, Levofloxacin] | 1 | 0.25 | – | – | – | – | 0.125 | – | – | – | – | – | – | – | – | Ratio Y:X [1, 8]: 0.125; Ratio Y:X [1, 2]: 0.25
3 | Cc1cn([C@H]2C[C@H](N=[N+]=[N-])[C@@H](CO)O2)c(=O)[nH]c1=O [Zidovudine, 1-[(2R, 4S, 5S)-4-Azido-5-(hydroxymethyl)oxolan-2-yl]-5-methylpyrimidine-2,4-dione] | – | – | 512 | 8 | 1 | 1 | – | 2 | 0.5 | 0.000977 | 512 | 4 | 0.5 | 0.000977 | 0.125 | Ratio Y:X (P. aeruginosa; [9]): 0.003906; Ratio Y:X (P. aeruginosa; [5]): 0.01562; Ratio Y:X (P. aeruginosa; [6]): 0.001953; Ratio Y:X (P. aeruginosa; [7]): 0.001953; Ratio Y:X (A. baumannii; [11]): 0.007813; MIC (ESBL E. coli): 1 µg/mL; Ratio Y:X (ESBL E. coli; [12]): 0.125
4 | C[C@@H]1O[C@@H]1P(=O)(O)O [Fosfomycin] | 16 | – | 256 | – | – | 4 | 2 | – | 16 | 0.125 | 256 | – | 32 | 0.125 | – | Ratio Y:X [1, 8]: 0.125; concentration up to which the isolate was resistant to the agent (P. aeruginosa; [3]): 64 mg/L; MIC Monotherapy (X) (P. aeruginosa; [4]): 128 µg/mL; Ratio Y:X (P. aeruginosa; [13]): 0.01562; concentration up to which the isolate was resistant to the agent (A. baumannii): 128 mg/L
5 | CCC(C)CCCC(=O)N[C@@H](CCN)C(=O)N[C@H](C(=O)N[C@@H](CCN)C(=O)N[C@H]1CCNC(=O)[C@H]([C@@H](C)O)NC(=O)[C@H](CCN)NC(=O)[C@H](CCN)NC(=O)[C@H](CC(C)C)NC(=O)[C@@H](CC(C)C)NC(=O)[C@H](CCN)NC1=O)[C@@H](C)O (stereo partly drawn) (HELM PEPTIDE1{[CCC(C)CCCC(=O)[*:2]].[Dab].T.[Dab].[Dab].[Dab].[dL].L.[Dab].[Dab].T}$PEPTIDE1,PEPTIDE1,5:R3-11:R2$$$V2.0) | – | – | 512 | – | 2 | 32 | – | 4 | 0.5 | 0.000977 | 128 | 32 | 0.5 | 0.003906 | – | Ratio Y:X (P. aeruginosa; [9]): 0.007813; Ratio Y:X (P. aeruginosa; agent within AZT + meropenem + colistin + ceftazidime (Example 13)): 0.003906; Ratio Y:X (P. aeruginosa; [13]): 0.0625; concentration up to which the isolate was resistant to the agent (A. baumannii): 64 mg/L; Ratio Y:X (A. baumannii; [11]): 0.25; concentration at which the isolate was resistant to the agent (K. pneumoniae CPE): ≥ 8 mg/L
6 | C[C@H]1c2cccc(O)c2C(=O)C2=C(O)[C@]3(O)C(=O)C(C(N)=O)=C(O)[C@@H](N(C)C)[C@@H]3[C@@H](O)[C@@H]21 [Doxycycline] | – | – | – | – | – | – | – | – | – | – | – | – | – | – | 0.5 | MIC (ESBL E. coli): 1 µg/mL
7 | CC(C)(O/N=C(\C(=O)N[C@@H]1C(=O)N2C(C(=O)[O-])=C(C[n+]3ccccc3)CS[C@H]12)c1csc(N)n1)C(=O)O [Ceftazidime] | – | 1 | 512 | 0.5 | 1 | – | 16 | 1 | – | – | 512 | 32 | – | – | 4 | concentration at which the isolate was resistant to the agent (K. pneumoniae CPE): 4 mg/L
